As a reminder, the IC50 is the concentration needed to halve the response being measured.

The experiment deals with human Gal-3 (hGal-3) (Homo sapiens (Human), UniProt P17931). Nature of the experiment: Competitive binding assay: biotinylated hGal-3 binding to microplate-adsorbed asialofetuin (ASF). As to conditions: Activity on hGal-3; mean values of several measurements; mixture of diastereomers measured where not separated. In a few lines: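 Biotinylated human Gal-3 binding to plate-adsorbed asialofetuin, competed by compound, 3 h at 4 °C. Bound protein detected with streptavidin-peroxidase (1 h, 4 °C) and ABTS substrate. IC50 reported as mean of several measurements.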
Sequence of human Gal-3 (hGal-3) (P17931 whole entry): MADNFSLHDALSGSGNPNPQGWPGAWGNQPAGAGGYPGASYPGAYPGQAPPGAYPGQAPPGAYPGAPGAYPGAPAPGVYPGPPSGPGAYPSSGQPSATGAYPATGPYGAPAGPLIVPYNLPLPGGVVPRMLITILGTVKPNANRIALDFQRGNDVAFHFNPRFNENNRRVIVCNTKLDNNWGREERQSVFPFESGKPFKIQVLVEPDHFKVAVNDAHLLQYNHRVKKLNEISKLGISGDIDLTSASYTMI
In the case of `CO[C@@H]1[C@@H](n2cc(-c3cc(F)c(F)c(F)c3)nn2)[C@@H](O)[C@@H](CO)O[C@H]1C(=O)N(c1cc(Cl)cc(Cl)c1)[C@H]1CN(C(C)=O)C[C@@H]1O` [Example 71, (2R,3R,4S,5R,6R)-N-((3S,4S)-1-acetyl-4-hydroxypyrrolidin-3-yl)-N-(3,5-dichlorophenyl)-5-hydroxy-6-(hydroxymethyl)-3-methoxy-4-(4-(3,4,5-trifluorophenyl)-1H-1,2,3-triazol-1-yl)tetrahydro-2H-pyran-2-carboxamide], the IC50 came out at 36 nM.
To `CO[C@@H]1[C@@H](n2cc(-c3ccc(C)c(F)c3F)nn2)[C@@H](O)[C@@H](CO)O[C@H]1C(=O)N(c1cc(C)cc(Br)c1)[C@H]1CNC[C@@H]1O` [Example 64, (2R,3R,4S,5R,6R)-N-(3-bromo-5-methylphenyl)-4-(4-(2,3-difluoro-4-methylphenyl)-1H-1,2,3-triazol-1-yl)-5-hydroxy-6-(hydroxymethyl)-N-((3S,4S)-4-hydroxypyrrolidin-3-yl)-3-methoxytetrahydro-2H-pyran-2-carboxamide] belongs 25 nM.
To `CO[C@@H]1[C@@H](n2cc(-c3cc(F)c(F)c(F)c3)nn2)[C@@H](O)[C@@H](CO)O[C@H]1C(=O)N(c1cc(Cl)cc(Cl)c1)[C@H]1CNCC[C@@H]1O` [Example 113, (2R,3R,4S,5R,6R)-N-(3,5-dichlorophenyl)-5-hydroxy-6-(hydroxymethyl)-N-((3S,4S)-4-hydroxypiperidin-3-yl)-3-methoxy-4-(4-(3,4,5-trifluorophenyl)-1H-1,2,3-triazol-1-yl)tetrahydro-2H-pyran-2-carboxamide] belongs 13 nM; to `CO[C@@H]1[C@@H](n2cc(-c3cc(F)c(C)c(F)c3)nn2)[C@@H](O)[C@@H](CO)O[C@H]1C(=O)N(c1cc(Br)cc(C#N)c1)[C@H]1COC[C@@H]1O` [Example 17, (2R,3R,4S,5R,6R)-N-(3-bromo-5-cyanophenyl)-4-(4-(3,5-difluoro-4-methylphenyl)-1H-1,2,3-triazol-1-yl)-5-hydroxy-6-(hydroxymethyl)-N-((3S,4R)-4-hydroxytetrahydrofuran-3-yl)-3-methoxytetrahydro-2H-pyran-2-carboxamide], 66 nM; to `CO[C@@H]1[C@@H](n2cc(-c3cc(F)c(F)c(F)c3)nn2)[C@@H](O)[C@@H](CO)O[C@H]1C(=O)N(c1cc(Cl)cc(C#N)c1)[C@H]1COC[C@@H]1O` [Example 5, (2R,3R,4S,5R,6R)-N-(3-chloro-5-cyanophenyl)-5-hydroxy-6-(hydroxymethyl)-N-((3S,4R)-4-hydroxytetrahydrofuran-3-yl)-3-methoxy-4-(4-(3,4,5-trifluorophenyl)-1H-1,2,3-triazol-1-yl)tetrahydro-2H-pyran-2-carboxamide], 69 nM.
Under `CO[C@@H]1[C@@H](n2cc(-c3cc(F)c(F)c(F)c3)nn2)[C@@H](O)[C@@H](CO)O[C@H]1C(=O)N(c1cc(Br)cc(C#N)c1)[C@@H]1CN(C=O)C[C@H]1O` [Example 93, (2R,3R,4S,5R,6R)-N-(3-bromo-5-cyanophenyl)-N-((3R,4R)-1-formyl-4-hydroxypyrrolidin-3-yl)-5-hydroxy-6-(hydroxymethyl)-3-methoxy-4-(4-(3,4,5-trifluorophenyl)-1H-1,2,3-triazol-1-yl)tetrahydro-2H-pyran-2-carboxamide] stands 80 nM; under `CO[C@@H]1[C@@H](n2cc(-c3cc(F)c(C)c(F)c3)nn2)[C@@H](O)[C@@H](CO)O[C@H]1C(=O)N(c1cc(Br)cc(Br)c1)[C@H]1COC[C@@H]1O` [Example 16, (2R,3R,4S,5R,6R)-N-(3,5-dibromophenyl)-4-(4-(3,5-difluoro-4-methylphenyl)-1H-1,2,3-triazol-1-yl)-5-hydroxy-6-(hydroxymethyl)-N-((3S,4R)-4-hydroxytetrahydrofuran-3-yl)-3-methoxytetrahydro-2H-pyran-2-carboxamide], 61 nM.
With `CO[C@@H]1[C@@H](n2cc(-c3cc(F)c(C)c(F)c3)nn2)[C@@H](O)[C@@H](CO)O[C@H]1C(=O)N(c1cc(C)cc(Br)c1)[C@H]1CN(C(C)=O)C[C@@H]1O` [Example 75, (2R,3R,4S,5R,6R)-N-((3S,4S)-1-acetyl-4-hydroxypyrrolidin-3-yl)-N-(3-bromo-5-methylphenyl)-4-(4-(3,5-difluoro-4-methylphenyl)-1H-1,2,3-triazol-1-yl)-5-hydroxy-6-(hydroxymethyl)-3-methoxytetrahydro-2H-pyran-2-carboxamide], the IC50 came out at 22 nM.
To `CO[C@@H]1[C@@H](n2cc(-c3cc(F)c(F)c(F)c3)nn2)[C@@H](O)[C@@H](CO)O[C@H]1C(=O)N(c1cc(Cl)cc(Cl)c1)[C@H]1CCOC[C@@H]1O` [Example 99, (2R,3R,4S,5R,6R)-N-(3,5-dichlorophenyl)-5-hydroxy-6-(hydroxymethyl)-N-((3R,4S)-3-hydroxytetrahydro-2H-pyran-4-yl)-3-methoxy-4-(4-(3,4,5-trifluorophenyl)-1H-1,2,3-triazol-1-yl)tetrahydro-2H-pyran-2-carboxamide] belongs 16 nM.
Under `CO[C@@H]1[C@@H](n2cc(-c3cc(F)c(F)c(F)c3)nn2)[C@@H](O)[C@@H](CO)O[C@H]1C(=O)N(c1cc(Br)cc(C#N)c1)[C@@H]1CN(C(C)=O)C[C@H]1O` [Example 78, (2R,3R,4S,5R,6R)-N-((3R,4R)-1-acetyl-4-hydroxypyrrolidin-3-yl)-N-(3-bromo-5-cyanophenyl)-5-hydroxy-6-(hydroxymethyl)-3-methoxy-4-(4-(3,4,5-trifluorophenyl)-1H-1,2,3-triazol-1-yl)tetrahydro-2H-pyran-2-carboxamide] stands 71 nM; under `CO[C@@H]1[C@@H](n2cc(-c3cc(F)c(F)c(F)c3)nn2)[C@@H](O)[C@@H](CO)O[C@H]1C(=O)N(c1cc(C)cc(Br)c1)[C@H]1CNC[C@@H]1O` [Example 61, (2R,3R,4S,5R,6R)-N-(3-bromo-5-methylphenyl)-5-hydroxy-6-(hydroxymethyl)-N-((3S,4S)-4-hydroxypyrrolidin-3-yl)-3-methoxy-4-(4-(3,4,5-trifluorophenyl)-1H-1,2,3-triazol-1-yl)tetrahydro-2H-pyran-2-carboxamide], 26 nM; under `CO[C@@H]1[C@@H](n2cc(-c3cc(F)c(F)c(F)c3)nn2)[C@@H](O)[C@@H](CO)O[C@H]1C(=O)N(c1cccc(Cl)c1)[C@H]1COC[C@@H]1O` [Example 1, (2R,3R,4S,5R,6R)-N-(3-chlorophenyl)-5-hydroxy-6-(hydroxymethyl)-N-((3S,4R)-4-hydroxytetrahydrofuran-3-yl)-3-methoxy-4-(4-(3,4,5-trifluorophenyl)-1H-1,2,3-triazol-1-yl)tetrahydro-2H-pyran-2-carboxamide], 102 nM.
Take `CO[C@@H]1[C@@H](n2cc(-c3ccc(Br)c(F)c3F)nn2)[C@@H](O)[C@@H](CO)O[C@H]1C(=O)N(c1cc(Cl)cc(Cl)c1)[C@@H]1COC[C@H]1O` [Example 41, (2R,3R,4S,5R,6R)-4-(4-(4-bromo-2,3-difluorophenyl)-1H-1,2,3-triazol-1-yl)-N-(3,5-dichlorophenyl)-5-hydroxy-6-(hydroxymethyl)-N-((3R,4S)-4-hydroxytetrahydrofuran-3-yl)-3-methoxytetrahydro-2H-pyran-2-carboxamide]: the IC50 was determined as 63 nM.
To `CO[C@@H]1[C@@H](n2cc(-c3cc(F)c(F)c(F)c3)nn2)[C@@H](O)[C@@H](CO)O[C@H]1C(=O)N(c1cc(Cl)cc(C#N)c1)[C@@H]1COC[C@H]1O` [Example 34, (2R,3R,4S,5R,6R)-N-(3-chloro-5-cyanophenyl)-5-hydroxy-6-(hydroxymethyl)-N-((3R,4S)-4-hydroxytetrahydrofuran-3-yl)-3-methoxy-4-(4-(3,4,5-trifluorophenyl)-1H-1,2,3-triazol-1-yl)tetrahydro-2H-pyran-2-carboxamide] belongs 102 nM; to `CO[C@@H]1[C@@H](n2cc(-c3cc(F)c(C)c(F)c3)nn2)[C@@H](O)[C@@H](CO)O[C@H]1C(=O)N(c1cc(Br)cc(Br)c1)[C@@H]1COC[C@H]1O` [Example 45, (2R,3R,4S,5R,6R)-N-(3,5-dibromophenyl)-4-(4-(3,5-difluoro-4-methylphenyl)-1H-1,2,3-triazol-1-yl)-5-hydroxy-6-(hydroxymethyl)-N-((3R,4S)-4-hydroxytetrahydrofuran-3-yl)-3-methoxytetrahydro-2H-pyran-2-carboxamide], 59 nM.
Take `COc1cc(C#N)cc(N(C(=O)[C@@H]2O[C@H](CO)[C@H](O)[C@H](n3cc(-c4cc(F)c(F)c(F)c4)nn3)[C@H]2OC)[C@@H]2COC[C@H]2O)c1` [Example 38, (2R,3R,4S,5R,6R)-N-(3-cyano-5-methoxyphenyl)-5-hydroxy-6-(hydroxymethyl)-N-((3R,4S)-4-hydroxytetrahydrofuran-3-yl)-3-methoxy-4-(4-(3,4,5-trifluorophenyl)-1H-1,2,3-triazol-1-yl)tetrahydro-2H-pyran-2-carboxamide]: the IC50 was 113 nM.
To `CO[C@@H]1[C@@H](n2cc(-c3cc(F)c(F)c(F)c3)nn2)[C@@H](O)[C@@H](CO)O[C@H]1C(=O)N(c1cc(C)cc(Br)c1)[C@@H]1COC[C@H]1O` [Example 37, (2R,3R,4S,5R,6R)-N-(3-bromo-5-methylphenyl)-5-hydroxy-6-(hydroxymethyl)-N-((3R,4S)-4-hydroxytetrahydrofuran-3-yl)-3-methoxy-4-(4-(3,4,5-trifluorophenyl)-1H-1,2,3-triazol-1-yl)tetrahydro-2H-pyran-2-carboxamide] belongs 186 nM; to `CO[C@@H]1[C@@H](n2cc(-c3cc(F)c(F)c(F)c3)nn2)[C@@H](O)[C@@H](CO)O[C@H]1C(=O)N(c1cc(C)cc(Br)c1)[C@H]1CN(S(C)(=O)=O)C[C@@H]1O` [Example 98, (2R,3R,4S,5R,6R)-N-(3-bromo-5-methylphenyl)-5-hydroxy-N-((3S,4S)-4-hydroxy-1-(methylsulfonyl)pyrrolidin-3-yl)-6-(hydroxymethyl)-3-methoxy-4-(4-(3,4,5-trifluorophenyl)-1H-1,2,3-triazol-1-yl)tetrahydro-2H-pyran-2-carboxamide], 29 nM.

The values are drawn from US20240124427A1, “HYDROXYHETEROCYCLOALKANE-CARBAMOYL DERIVATIVES” (Idorsia Pharmaceuticals Ltd, priority 2021, published 2024).
